Where only a bound is given, the exact number is not on record here.

For data set [1], the system named is Friedreich's ataxia patients. As to the kind of experiment: Phase I/II double blind, comparator-controlled trial: safety and tolerability. In kind it is in vivo, human. The settings on record: for Safety and tolerability: oral, 1.8 or 9.0 g/day, FRDA patients. The method, then:
A phase I/II double blind, comparator-controlled trial with 2 doses of 11,11-D2-linoleic acid ethyl ester in Friedreich's ataxia patients (9 subjects in each cohort) was conducted. Subjects were randomized 2:1 to receive either 11,11-D2-linoleic acid ethyl ester (1.8 or 9.0 g/day), or a matching dose of non-deuterated ethyl linoleate as comparator for 28 days.
(§1) The primary study objectives were to evaluate the safety and tolerability of orally administered 11,11-D2-linoleic acid ethyl ester. Additional study objectives included identifying the PK of 11,11-D2-linoleic acid ethyl ester following single and multiple oral dose administration and establishing an optimum dose of 11,11-D2-linoleic acid ethyl ester. Additional clinical testing consisted of the Friedreich's Ataxia Rating Scale (FARS)-Neurological point (FARS-Neuro), the timed 25-foot walk (T25FW) with an electronic sensor to measure multiaxis components of motion during the study, and cardiopulmonary exercise testing (CPET). The CPET was performed on an electronically braked cycle ergometer (Lode Corival, Groningen, The Netherlands). The protocol included: 5 minutes of rest; 3 minutes of an unloaded cycling warm-up; a progressive protocol with increased workload each minute (5-25 watts based on estimated functional capacity); 2 minutes of an unloaded cycling recovery; and 10 minutes of passive recovery. Heart rate (HR), blood pressure (BP), ratings of perceived exertion (RPE), pulse oximetry, and expired gases were monitored in accord with standard exercise testing guidelines. Scc Pescatello et al., Thompson P. ACSM's Guidelines for Exercise Testing and Prescription. Baltimore, MD: Wolters Kluwer; 2014:114-141. Heart rate was measured by electrocardiogra (Pulse Biomedical, King of Prussia, PA), BP was determined by auscultation, RPE was estimated using the standard 6 to 20 scale, and expired gases were collected through a silicone rubber mask (Hans Rudolph, Shawnee, KS) and analyzed continuously using a metabolic cart (Parvomedics, AQ5 Sandy, UT) Vacumetrics (Ventura, CA). Endpoints of interest were peak oxygen consumption (VO2 peak) and peak workload. All other variables were primarily assessed to monitor patient safety and progress during the exercise trial.
The study included male or female participants, aged 18 to 50 years, with a FRDA onset at equal or less than 25 years of age, homozygosity for GAA repeat expansions in FXN, and FARS-Neuro range of 20 to 90 points. Participants were ambulatory (with or without assistive device), capable of performing other assessments/evaluations, with a body mass index (BMI) equal or less than 34 kg/m^2. Subjects were agreeable to dietary restriction coaching from a diet counselor to lower PUFA dietary intake, for maximal incorporation of 11,11-D2-linoleic acid ethyl ester. Sample size was selected to ensure 12 fully evaluable patients for active treatment and 6 patients for the comparator treatment. It was not powered, but considered adequate for a first-in-human trial of 11,11-D2-linoleic acid ethyl ester.
A randomization schedule was generated before the first dosing period by Agility Clinical, Inc. (Carlsbad, CA) that followed their established standard operating procedures regarding generation, security, and distribution of the randomization scheme. Patients who provided informed consent and met all enrollment criteria were randomized into the study. In order to randomize a patient, the site contacted the unblinded statistician at Agility, Inc to identify which kit should be provided to the patient.
Patients were randomly assigned to receive one of two treatments (11,11,D2-linoleic acid ethyl ester or comparator) following a 2:1 ratio, respectively. The study sponsor, investigators, research pharmacy, and patients were blinded to the subject's treatment. […]

The nature of data set [2]: Plasma PK by LC-MS (D2-LA, LA, D2-AA) in the phase I/II trial. The method, then: (§2) PK samples were obtained predose and at 0.5, 1, 1.5, 2, 4, 6, 8, 12, 16, and 24 hours following the first dose and 14, 28, 29, 30, and 31 days following enrollment. The samples taken on Days 29-31 represent Isotopically modified polyunsaturated fatty acid, ester, thioester, amide, or other prodrug thereof (e.g., 11,11,D2-linoleic acid ethyl ester) washout levels. D2-LA, linoleic acid (LA), deuterated arachidonic acid (D2-AA), and arachidonic acid (ARA) concentrations were measured in the samples.
(§3) Plasma concentrations of 11,11-D2-linoleic acid ethyl ester (combined free acid form and ester form) and non-deuterated analogs were determined by liquid chromatography and mass spectrometry (LCMS). Blood was collected in K2EDTA anticoagulant tubes, centrifuged to obtain plasma and red blood cells (RBCs), and frozen until analyzed. The samples were hydrolyzed to free fatty acids and analyzed by high performance LC-MS by Good Laboratory Practice validated methods. Low-intensity D2 and high-intensity H2 signals were measured with high accuracy at Ricerca Biosciences, using an AB SCIEX 6500 tandem-quadrupole MS. The 13C2 isotopomer signal was used as a calibration standard for 11,11,D2-linoleic acid ethyl ester; a polydeuterated internal standard was utilized. The enzymatic elongation/desaturation metabolite, 13,13-D2-arachidonic acid (D2-AA), was also measured, in plasma and red blood cells (RBCs).

The nature of data set [3]: Red blood cell (RBC) concentrations by LC-MS in the phase I/II trial. Format: in vivo, human. The procedure:
as §2, §3
The ability of 11,11-D2-linoleic acid ethyl ester to enter the cellular membrane compartment was assessed by measuring 11,11-D2-linoleic acid ethyl ester and LA concentration in RBCs during the 28-day period.

Data set [4] has as its system Friedreich's ataxia patients. As to the kind of experiment: Cardiopulmonary exercise testing (CPET): peak workload, VO2max. The settings on record: for Median change from baseline in peak oxygen consumption (VO2max): baseline to day 28, P=0.116. In kind it is in vivo, human.
Description: as §1
Four protocol-defined outcomes (peak workload, VO2max, FARS-Neuro, and T25FW) were examined to explore for possible endpoints for future studies in FRDA. Nonparametric statistics were used to compare the results of those receiving 11,11-D2-linoleic acid ethyl ester to comparator. A modified intention-to-treat (mITT) population was used for the VO2max and peak workload testing analysis because 2 subjects were unable to complete the exercise test. One subject was unable to establish required pedal cadence, and the test was terminated at the conclusion of the warm-up at baseline and day 27 and 1 subject had to stop the day 27 testing because the subject's knees were hitting together and the subject was unable to maintain the RPM. […] After Bonferroni adjustment for testing the four outcomes, the change in peak workload between study drug and comparator remained significant (P=0.032). This Bonferroni adjustment is standard in early-stage trials to analyze both prospective or post-hoc data from multiple exploratory efficacy endpoints in order, to determine the most suitable primary endpoint for subsequent pivotal trials.

Data set [5] deals with Friedreich's ataxia patients. Put plainly: Friedreich's Ataxia Rating Scale-Neurological (FARS-Neuro). In kind it is in vivo, human.
Description: as §1, with “The protocol included: 5 minutes of rest; 3 minutes of an unloaded cycling warm-up; a progressive protocol with increased workload each minute (5-25 watts based on estimated functional capacity); 2 minutes of an unloaded cycling recovery; and 10 minutes of passive recovery.” left out, “Scc Pescatello et al., Thompson P. ACSM's Guidelines for Exercise Testing and Prescription. Baltimore, MD: Wolters Kluwer; 2014:114-141.” left out, “Endpoints of interest were peak oxygen consumption (VO2 peak) and peak workload.” left out, “trial. […]” for “trial.”

Data set [6] deals with Friedreich's ataxia patients. As to the kind of experiment: Timed 25-foot walk (T25FW) with electronic motion sensor or stopwatch. In kind it is in vivo, human.
Description: as §1, with “The protocol included: 5 minutes of rest; 3 minutes of an unloaded cycling warm-up; a progressive protocol with increased workload each minute (5-25 watts based on estimated functional capacity); 2 minutes of an unloaded cycling recovery; and 10 minutes of passive recovery.” left out, “Scc Pescatello et al., Thompson P. ACSM's Guidelines for Exercise Testing and Prescription. Baltimore, MD: Wolters Kluwer; 2014:114-141.” left out, “Endpoints of interest were peak oxygen consumption (VO2 peak) and peak workload.” left out, “trial. […]” for “trial.”

Where [7] appears, read: drug group, cohort 2 (4.5 g BID), 28 days.

In the case of `[2H]C([2H])(/C=C\CCCCC)/C=C\CCCCCCCC(=O)OCC` [11,11-D2-linoleic acid ethyl ester], the “Diarrhea assessed as "possibly related to study drug"” value in data set [1] (setting [7]) came to 3 subjects. The “Diarrhea assessed as "probably related to study drug"” value in data set [1] (setting [7]) stood at 1 subject. For the same compound, the “Subjects who discontinued the study because of steatorrhea” value in data set [1] (high-dose group (cohort 2), BMI 15.4, within the first week) was “One”. Moreover, the Safety and tolerability entry in data set [1] (28 days) is “safe and tolerable”; in data set [1] (28 days, listed as 11,11,D2-linoleic acid ethyl ester) it was “well tolerated”. Besides, in data set [2] (human, in vivo), the “Increase of day 28 24-hour AUC when the daily dose was increased 5-fold” value is recorded as “approximately 4 fold”. Besides, the “Time of maximum plasma D2-LA concentration” value in data set [2] (in vivo) fell in the range of 8 to 10 h. Moreover, the “Time to steady state in the plasma and in RBCs” value in data set [2] (in vivo, po) was not above 28 days. Besides, the figures for the “RBC concentration of D2-LA as percentage of total LA (D2-LA plus LA), mean” value in data set [3] (cohort 1) and in data set [3] (cohort 2) were 6.52% and 25.8%, respectively. Further, the “Mean RBC concentration of D2-LA” value in data set [3] (day 28, cohort 1 (1.8 g QD)) amounted to 14.6 ± 8.7 µg/mL; in data set [3] (day 28, cohort 2 (4.5 g BID)), 26.1 ± 19.2 µg/mL. In addition, the “Change in VO2max between drug and comparator” value in data set [4] (baseline to day 28) came to 17.5%. Moreover, in data set [4], the “Median change from baseline in peak oxygen consumption (VO2max)” value is given as 0.14 L/min. Moreover, the “Change in peak workload in the drug group at study end-point” value in data set [4] (baseline to day 28, mITT) was determined as 25.7%. Moreover, the “Improvement in peak workload from baseline to day 28” value in data set [4] (study drug (n=10) versus comparator (n=6), mITT, P=0.008) turned out to be 0.16 watts/kg. Besides, the “Median decrease in FARS-Neuro” value in data set [5] (baseline to day 28) is given as 4.75 FARS points. Besides, the “Difference in FARS points decrease between drug and placebo groups” value in data set [5] (baseline to day 28, P=0.348 ITT) is reported as 1.95 FARS points. Also, in data set [6] (P=0.88), the “T25FW^−1 time, traditionally measured (by stopwatch)” value was “no signal of significance”. Besides, the “Improvement of stride speed (stride time)^−1” value in data set [6] (electronic motion sensing device on the ankle, 25-foot timed walk, P=0.15 ITT) is reported as 7%.

Take `[2H]C([2H])(/C=C\C/C=C\C/C=C\CCCC(=O)O)/C=C\CCCCC` [D2-AA, 13,13-D2-arachidonic acid]: the “Mean plasma concentration of D2-AA” value in data set [2] (high dose (4.5 g BID), 72-hour period after the last dose (day 28)) is listed as “around 22 μg/mL”. Further, the “Plasma concentration of D2-AA (metabolite)” value is recorded as “below or slightly above the LOQ” in data set [2] (high dose, predose baseline and day 1, LOQ 1 μg/mL); “below quantitation” in data set [2] (low dose 11,11-D2-linoleic acid ethyl ester, day 1). Also, in data set [2] (low dose (1.8 g QD), after day 28), the “Mean plasma concentration of D2-AA, maximum at 32 hours after the last dose” value came to 5530 ng/mL. For the same compound, the “Mean plasma concentration of D2-AA, maximum at 6 hours after the last dose” value in data set [2] (low dose (1.8 g QD), day 28) was 3860 ng/mL.

In the case of `CCCCC/C=C\C/C=C\CCCCCCCC(=O)OCC` [comparator, ethyl linoleate, reference compound], the “Diarrhea (TEAE)” value in data set [1] (both, human, in vivo, 28 days) is 1 subject. Moreover, the “Median change from baseline in peak oxygen consumption (VO2max)” value in data set [4] is -0.02 L/min.

For the origin of these results see patent US20240238238A1, “Isotopically Modified Composition and Therapeutic Uses Thereof” (BioJiva LLC, priority 2018, published 2024).
